Source: PMC8242589, “Cardiac Safety of Kinase Inhibitors – Improving Understanding and Prediction of Liabilities in Drug Discovery Using Human Stem Cell-Derived Models” (Frontiers in Cardiovascular Medicine, 2021)
Blank lines part the entries; values can stand above or below the compound they belong to.

Legend:
PI3K p110δ = conditions: ref [23]–[25] (NVP-BEZ235), [27] (LY 294002), [28] (GDC-0941), [33] (CAL-101); read-out: Target IC50 p110δ; cited from earlier work
PI3K p110β = conditions: ref [23]–[25] (NVP-BEZ235), [27] (LY 294002), [28] (GDC-0941), [32] (TGX-221), [33] (CAL-101), [35] (CZC24832); read-out: Target IC50 p110β; cited from earlier work
PI3K p110γ = conditions: ref [23]–[25] (NVP-BEZ235), [28] (GDC-0941), [33] (CAL-101), [35] (CZC24832); read-out: Target IC50 p110γ; cited from earlier work
[1] = test system: hSC-CMs (Cor.4U Cardiomyocytes); experiment: Apoptosis assay (CellEvent Caspase-3/7 Green, IncuCyte ZOOM kinetics over 24 h); assay type: cell-based, human; conditions: for activity at 0.03 µM / activity at 0.1 µM / activity at 0.3 µM / activity at 1 µM / activity at 0.2 µM / activity at 2 µM / activity at 20 µM / activity at 200 µM: Homo sapiens, Cardiomyocyte, normalized to time-matched vehicle control; for Apoptosis (caspase-3/7 activation), result in words / Time to reach the maximum number of apoptotic cells: hSC-CMs, monitored over 24 h
Outline: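 Cor.4U cardiomyocytes were cultured 4 days at 5% CO2 and 37 °C, given a 2 h baseline, then treated with compound for 24 h. Caspase-3/7 green nuclear signal was imaged every 2 h, and total green object area per well (μm^2/well) was normalized to the time-matched vehicle control. At least three replicates were run per concentration.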

PI3K p110α = conditions: ref [23]–[25] (NVP-BEZ235), [27] (LY 294002), [28] (GDC-0941), [31] (HS-173), [33] (CAL-101); read-out: Target IC50 p110α; cited from earlier work
[2] = clinical exposure in patients; ref [26] (NVP-BEZ235), [29], [30] (GDC-0941), [34] (CAL-101); cited from earlier work
[3] = test system: hSC-CMs (Cor.4U Cardiomyocytes); experiment: CardioExcyte 96 impedance and EFP recording (beating rate, base impedance); assay type: cell-based, human; conditions: for activity at 0.2 µM / activity at 2 µM / activity at 20 µM / activity at 200 µM: Homo sapiens, Cardiomyocyte, vs baseline before drug (taken as 100%)
Outline: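 hSC-CM monolayers (Cor.4U), cultured 4 days at 37 °C, 5% CO2, recorded spontaneously beating; impedance sampled at 1 kHz, EFP at 10 kHz. Beating rate taken as reciprocal of inter-spike interval in EFP. Each test concentration expressed as fractional change versus pre-drug baseline (100%).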

[4] = test system: hSC-CMs (Cor.4U Cardiomyocytes); experiment: ATP assay (CellTiter-Glo Luminescent Cell Viability Assay); assay type: cell-based, human; conditions: for viability at 0.2 µM / viability at 2 µM / viability at 20 µM / viability at 200 µM: Homo sapiens, Cardiomyocyte, normalized to time-matched DMSO control
Outline: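 Human stem-cell-derived Cor.4U cardiomyocytes (25,000–30,000/well), cultured 4 days at 37 °C, switched to serum-free BMCC medium 12 h before dosing. Cellular ATP quantified by CellTiter-Glo luminescence and normalized to time-matched DMSO controls; at least three replicates per concentration.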

SMILES: CS(=O)(=O)N1CCN(Cc2cc3nc(-c4cccc5[nH]ncc45)nc(N4CCOCC4)c3s2)CC1 [GDC-0941, 2-(1 H -Indazol-4-yl)-6-(4-methanesulfonyl-piperazin-1-ylmethyl)-4-morpholin-4-yl-thieno[3,2-d]pyrimidine]
- activity at 0.03 µM ([1]; 2h): 157%
- activity at 0.03 µM ([1]; 24h): 80%
- activity at 0.1 µM ([1]; 2h): 138%
- activity at 0.1 µM ([1]; 24h): 77%
- activity at 0.3 µM ([1]; 2h): 106%
- activity at 0.3 µM ([1]; 24h): 113%
- activity at 1 µM ([1]; 2h): 104%
- activity at 1 µM ([1]; 24h): 219%
- Apoptosis (caspase-3/7 activation), result in words [1]: induced apoptosis in hSC-CMs with a fast onset

- Effect on cardiomyocyte function in 3D surface plots (beating rate, base impedance, ATP), in words ([3]; hSC-CMs, 2 and 24 h): pronounced effects
SMILES: CC[C@H](Nc1ncnc2[nH]cnc12)c1nc2cccc(F)c2c(=O)n1-c1ccccc1 [CAL-101, Idelalisib]
- Cmax free [2]: 700 nM
- IC50 (PI3K p110β): 56 nM
- activity at 0.2 µM ([3]; 2h, read-out: BR): 102%
- activity at 0.2 µM ([3]; 2h, read-out: Base Imp): 93%
- activity at 0.2 µM ([3]; 24h, read-out: BR): 99%
- activity at 0.2 µM ([3]; 24h, read-out: Base Imp): 94%
- activity at 2 µM ([3]; 2h, read-out: BR): 96%
- activity at 2 µM ([3]; 2h, read-out: Base Imp): 93%
- activity at 2 µM ([3]; 24h, read-out: BR): 94%
- activity at 2 µM ([3]; 24h, read-out: Base Imp): 99%
- activity at 20 µM ([3]; 2h, read-out: BR): 89%
- activity at 20 µM ([3]; 2h, read-out: Base Imp): 96%
- activity at 20 µM ([3]; 24h, read-out: BR): 80%
- activity at 20 µM ([3]; 24h, read-out: Base Imp): 89%
- activity at 200 µM ([3]; 2h, read-out: BR): 5%
- activity at 200 µM ([3]; 2h, read-out: Base Imp): 70%
- activity at 200 µM ([3]; 24h, read-out: BR): 39%
- activity at 200 µM ([3]; 24h, read-out: Base Imp): 52%
- Reduction of base impedance ([3]; hSC-CMs, 2 and 24 h): more than 20%
- Reduction of beating rate ([3]; hSC-CMs, 2 and 24 h): more than 20%
- activity at 0.2 µM ([1]; 2h): 137%
- activity at 0.2 µM ([1]; 24h): 90%
- activity at 2 µM ([1]; 2h): 118%
- activity at 2 µM ([1]; 24h): 83%
- activity at 20 µM ([1]; 2h): 99%
- activity at 20 µM ([1]; 24h): 169%
- activity at 200 µM ([1]; 2h): 83%
- activity at 200 µM ([1]; 24h): 544%
- Apoptosis (caspase-3/7 activation), result in words [1]: induced apoptosis in hSC-CMs with a fast onset
- Time to reach the maximum number of apoptotic cells [1]: ≤ 12 h
- viability at 0.2 µM ([4]; 2h): 87%
- viability at 0.2 µM ([4]; 24h): 98%
- viability at 2 µM ([4]; 2h): 87%
- viability at 2 µM ([4]; 24h): 92%
- viability at 20 µM ([4]; 2h): 92%
- viability at 20 µM ([4]; 24h): 89%
- viability at 200 µM ([4]; 2h): 98%
- viability at 200 µM ([4]; 24h): 79%
- Decrease of ATP level ([4]; hSC-CMs, after 24 h of incubation): 20–25%
